Measured values reported in patent US6689753B1, “β sheet breaker peptide analogs that inhibit β pleated sheet formation in amyloid β-peptide” (Axonyx, Inc., priority 1999, dated 2004).
Non-standard residues stand in square brackets, D forms with d. Residues, ends and D or L forms follow the SMILES beside them.

Tests used:
[1] = Peptide stability in rat plasma after i.v. bolus injection (radio-iodinated peptide, TCA precipitation, paper chromatography); assay type: in vivo; conditions: 15 minutes after i.v. injection
Description: d) Chirality changes. Replacement of the natural L-residue by the D-enantiomers dramatically increases resistance to proteolytic degradation. […] Indeed, approximately 90% of iAβ1 was degraded within minutes after intravenous injection. […] For detection, the peptide was radio-iodinated using standard procedures. Peptide stability was evaluated after i.v bolus injection in rats by precipitation with trichloroacetic acid. Quantitation of the intact peptide was also done by paper chromatography. […] In addition to the latter, D-residue are used after each proline amino acid, since it has been reported that a frequent endopeptidase cleavage site is after this residue by an enzyme known as prolylendopeptidase.

Aβ = conditions: prior art; cited from earlier work
Aβ1-42 amyloid deposits = Aβ1-42 amyloid deposits (Homo sapiens, UniProt P05067); conditions: cited from earlier work
[2] = tested on: neuronal death induced by oligomeric Aβ; conditions: cell culture, prior art; cited from earlier work
[3] = In vitro assay of peptide stability in fresh human plasma; assay type: in vitro ADME
Description: One of the major drawbacks for the use of peptides as drugs is their rapid proteolytic degradation in biological fluids and tissues. In in vitro experiments, iAβ5, (Seq LPFFD- also depicted as Leu Pro Phe Phe Asp herein) degraded very quickly in vitro after incubation with fresh human plasma. […] Since it was not possible to identify any metabolic fragments as a result of the proteolytic digestion, it seems likely that the degradation is mainly done by unspecific exopeptidases. This conclusion is supported by the finding that protection of amino- and carboxy-terminus of the peptide by acetylation and amidation, respectively, (to form Ac-iAβ5-Am—also depicted as Ac-Leu Pro Phe Phe Asp-Am herein) dramatically increases the stability of the peptide in vitro.
In vitro assays of peptide stability. Peptides were prepared as a 1 μg/μl solution in water. 20 μl of the peptide solution was diluted in 80 μl of fresh human plasma. The solution was incubated at 37° C. for different time periods and the reaction was stopped by adding a complete cocktail of protease inhibitors. The bulk of the plasma proteins (none of the peptide) were precipitated in cold methanol (mix/MeOH, 4/5, v/v) for one hour at −20° C. […] The peak area corresponding to the intact peptide was measured and compared with an equivalent sample incubated without plasma.

PrP = PrP (Homo sapiens, UniProt P04156); conditions: cited from earlier work
Aβ1-40 = Aβ1-40 (Homo sapiens, UniProt P05067); assay: In vitro amyloid formation assay, thioflavine T fluorescence; assay type: biochemical; conditions: Aβ incubated with peptide, ThT fluorescence, FIG. 5a
[4] = In vitro metabolism in rat liver microsomes; assay type: in vitro ADME; conditions: one hour of incubation at 37°, read-out: peptide remained intact
[5] = In vitro metabolism in human liver microsomes; assay type: in vitro ADME; conditions: one hour of incubation at 37°, read-out: peptide remained intact

Aβ1-40, sequence (P05067 672-711): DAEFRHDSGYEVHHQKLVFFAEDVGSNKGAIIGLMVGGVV
Aβ1-42 amyloid deposits, sequence (P05067 672-713): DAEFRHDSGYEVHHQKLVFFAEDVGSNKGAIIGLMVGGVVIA

CC[C@@H](C)[C@@H](NC(=O)[C@H]1CCCN1C(=O)[C@H](NC(=O)[C@H]1CCCN1C(=O)[C@@H](Cc1ccc(O)cc1)NC(=O)[C@@H](Cc1ccccc1)NC(=O)[C@H]1CCCN1C(=O)[C@@H](CC(C)C)NC(=O)[C@@H](CC(=O)O)NC(=O)[C@H](N)CCCNC(=N)N)C(C)C)C(=O)N[C@H](CC(=O)O)C(=O)O (H-[dR][dD][dL][dP][dF][dY][dP][dV][dP][dI][dD]-OH; N-terminus and C-terminus assumed)
degradation in the plasma after injection [1]: virtually no degradation

RDLPFYPVPID [iAβ1]
inhibition of amyloid formation and dissolution of preformed fibrils in vitro (Aβ): inhibit peptide conformational changes that result in amyloid formation and also dissolved preformed fibrils

CC(C)C[C@H](N)C(=O)N1CCC[C@H]1C(=O)N[C@@H](Cc1ccccc1)C(=O)N[C@@H](Cc1ccccc1)C(=O)N[C@@H](CC(=O)O)C(=O)O [iAβ5, Leu Pro Phe Phe Asp] (H-LPFFD-OH)
inhibition of amyloid formation and dissolution of preformed fibrils in vitro (Aβ): inhibit peptide conformational changes that result in amyloid formation and also dissolved preformed fibrils
cerebral Aβ accumulation and deposition of fibrillar amyloid-like lesions (Aβ1-42 amyloid deposits; co-injection with Aβ1-42, rat brain, prior art): decreased cerebral Aβ accumulation and completely blocked the deposition of fibrillar amyloid-like lesions
inhibition of amyloid plaque formation (Aβ1-42 amyloid deposits; co-injection with Aβ1-42, rat): 50%
dissolution of preformed deposits (Aβ1-42 amyloid deposits; i.c. injection in animals already containing amyloid plaques): 67%
prevention of neuronal death [2]: capable of preventing the neuronal death
half-life at 0.2 μg/μl ([3]; fresh human plasma, 37° C., FIG. 4a, read-out: time in which fifty percent of the peptide disappeared in plasma): ~5 min

Asp Ala Pro Ala Ala Pro Ala Gly Pro ala Val Pro Val [iPrP13]
inhibitory activity on PrP conformational change among a set of β-sheet breaker peptides (PrP): showed the greatest activity

ISEVKMDAEF [CP10, unrelated control peptide]
activity in inhibiting amyloid formation (fibrillogenesis) (Aβ1-40): no effect on fibrillogenesis or slightly increased amyloid formation

Aβ18-21: short Aβ fragment (VFFA; Amyloid-beta protein 42; UniProt P05067 689-692, looked up, fragment)
activity in inhibiting amyloid formation (fibrillogenesis) (Aβ1-40): no effect on fibrillogenesis or slightly increased amyloid formation

GYLTVAAVFRG [CP2, unrelated control peptide]
activity in inhibiting amyloid formation (fibrillogenesis) (Aβ1-40): no effect on fibrillogenesis or slightly increased amyloid formation

CC(=O)N[C@@H](CC(C)C)C(=O)N1CCC[C@H]1C(=O)N[C@@H](Cc1ccccc1)C(=O)N[C@@H](Cc1ccccc1)C(=O)N[C@@H](CC(=O)O)C(N)=O [Ac-iAβ5-Am, Ac-Leu Pro Phe Phe Asp-Am] (Ac-LPFFD-NH2)
remaining at 1 h [4]: 76.3%
remaining at 1 h [5]: 81.5%
period the peptide remained stable in human plasma ([3]; human plasma, FIG. 4b): more than 24 hours

VHVSEEGTEPA [CP1, unrelated control peptide]
activity in inhibiting amyloid formation (fibrillogenesis) (Aβ1-40): no effect on fibrillogenesis or slightly increased amyloid formation
